Reference: patent US20100226966A1, “Method for transdermal controlled release drug delivery” (priority 2009, published 2010)

Columns and labels:
[1] = Pharmacokinetics of hPTH (1-34) after IV, SC and coated microprojection array administration in hairless guinea pig; assay type: in vivo; conditions: HGP; for dose absorbed/delivered: calculated against IV AUC
[2] = Clinical dose-finding and bioavailability study, transdermal coated microprojection vs subcutaneous Forteo, PTH plasma levels and safety; assay type: in vivo, human (healthy, young females)
Procedure: (§1) In this example, transdermal delivery of a PTH-based agent using a coated microprojection member was compared to conventional, subcutaneous delivery of teriparatide PTH (Forteo™). A dose-finding study was conducted with […], young females that received two treatments, separated by at least five days, according to randomly assigned sequence of 20 μg subcutaneous delivery of Forteo™ and 30 μg transdermal delivery of a PTH-based agent by coated microprojection. Bioavailability of transdermally delivered PTH was determined in 20 healthy, young females by administering two treatments, separated by at least five day, according to randomly assigned sequence of 40 μg subcutaneous delivery of Forteo™ and 30 μg transdermal delivery of a PTH-based agent by coated microprojection.
In the dose-finding study, two participants dropped out, eleven subjects participated and eight generated usable data. It was determined that three subjects had measurable PTH plasma levels following subcutaneous injection and eight subjects had measurable PTH plasma levels following transdermal delivery.

urinary cAMP = assay: Urinary cAMP excretion after transdermal vs subcutaneous PTH delivery; assay type: in vivo, human (healthy, young females); conditions: FIG. 15
Procedure: as §1
FIG. 12 further reflects a preferred pulsatile concentration profile of the PTH agent, i.e., rapid on-set and rapid off-set after reaching Cmax.

Water solubility of PTH = assay type: physicochemical; conditions: at pH 5
Description: Referring now to FIG. 10, there is shown a superposition of the mole ratios for acetic acid and the neutral form of hPTH(1-34). […] At pH 5, negligible amounts of PTH are present as PTH zero net charge (PTH 0). The PTH is also highly soluble in water at concentrations in excess of 20%. During drying and subsequent storage, the free acetic acid will evaporate inherently resulting in formation of the water insoluble PTH 0. Subsequent reconstitution in water will not allow total solubilization of PTH. Accordingly, the use of a low volatility counterion provides a solid soluble formulation of PTH as long as the pH is maintained at least 2.5 pH units, preferably 3 pH units, below the pI of PTH. Preferably, this can be achieved by providing at least about two low volatility counterions to each molecule of PTH.

## CC[C@H](C)[C@H](NC(=O)[C@H](CCC(=O)O)NC(=O)[C@H](CO)NC(=O)[C@@H](NC(=O)[C@@H](N)CO)C(C)C)C(=O)N[C@@H](CCC(N)=O)C(=O)N[C@@H](CC(C)C)C(=O)N[C@@H](CCSC)C(=O)N[C@@H](Cc1cnc[nH]1)C(=O)N[C@@H](CC(N)=O)C(=O)N[C@@H](CC(C)C)C(=O)NCC(=O)N[C@@H](CCCCN)C(=O)N[C@@H](Cc1cnc[nH]1)C(=O)N[C@@H](CC(C)C)C(=O)N[C@@H](CC(N)=O)C(=O)N[C@@H](CO)C(=O)N[C@@H](CCSC)C(=O)N[C@@H](CCC(=O)O)C(=O)N[C@@H](CCCN=C(N)N)C(=O)N[C@H](C(=O)N[C@@H](CCC(=O)O)C(=O)N[C@@H](Cc1c[nH]c2ccccc12)C(=O)N[C@@H](CC(C)C)C(=O)N[C@@H](CCCN=C(N)N)C(=O)N[C@@H](CCCCN)C(=O)N[C@@H](CCCCN)C(=O)N[C@@H](CC(C)C)C(=O)N[C@@H](CCC(N)=O)C(=O)N[C@@H](CC(=O)O)C(=O)N[C@H](C(=O)N[C@@H](Cc1cnc[nH]1)C(=O)N[C@@H](CC(N)=O)C(=O)N[C@@H](Cc1ccccc1)C(=O)O)C(C)C)C(C)C [hPTH (1-34)]
[1]; IV, 22.5 μg
  Fraction dose absorbed/delivered (%): 100%
[1]; SC, 19.5 μg
  dose absorbed/delivered: 8.2 ± 2.9 µg
[1]; hairless, guinea pig, plasma, 22.5 ug, IV
  Cmax: 11.2 ng/mL
[1]; microprojection array, 40.0 μg
  dose absorbed/delivered: 6.6 ± 1.8 µg
[2]; bioavailability study, subcutaneous delivery 40 μg, 20 subjects completed
  subjects with measurable PTH plasma levels: 15 subjects
[2]; bioavailability study, transdermal delivery 30 μg, 20 subjects completed
  subjects with measurable PTH plasma levels: 20 subjects
[2]; dose-finding study, subcutaneous injection 20 μg, eight subjects with usable data
  subjects with measurable PTH plasma levels: three
[2]; dose-finding study, transdermal delivery 30 μg, eight subjects with usable data
  subjects with measurable PTH plasma levels: eight
Urinary cAMP
  biological activity as evidenced by urinary cAMP excretion: comparable to that following subcutaneous delivery
Water solubility of PTH
  solubility in water (concentration): > 20%
